Results reported in patent US9783852B2, “Method for assessing embryotoxicity” (priority 2008, dated 2017).
Values after ≈ are worked out from the molar mass of the structure shown. Read-outs that look alike come from different tables or passages of the source.

Legend:
Hand1-ES cells = experiment: Hand1-ES cell luciferase reporter test during myocardial differentiation; settings: for Hand1-ES ID50 (50% inhibitory concentration for differentiation): concentration at which 50% of the luciferase activity is inhibited, day 6, medium for myocardial differentiation
Description: Hand1-ES cell line was cultured while maintaining an undifferentiated state in DMEM medium containing 15% heat inactivated fetal bovine serum supplemented with LIF containing 100 μg/mL G418. The undifferentiated Hand1-ES cells were dispersed using 0.25% trypsin/1 mM EDTA, and thereafter, the cells were suspended in DMEM medium containing 15% heat inactivated fetal bovine serum. Residual trypsin was removed by centrifugation and suction of the supernatant, and the cells were suspended in DMEM medium containing 15% heat inactivated fetal bovine serum not containing LIF (hereinafter, medium for myocardial differentiation). Thereafter, the number of cells was counted using a small amount of the cell solution, and a cell suspension (medium for myocardial differentiation) was prepared so as to have a cell number of 15,000 cells/mL. The prepared cell suspensions were added with only solvent such as PBS(−) or DMSO as a solvent control or added with a test chemical prepared by diluting with solvent into several levels, and thereafter, each cell suspension was seeded in a nonadherent U-bottom 96-well plate in a volume of 50 μL, and the culture was performed for 3 days. On day 3, 50 μL of the medium for myocardial differentiation supplemented with the test chemical again prepared was added, and the suspension culture was continued for 3 days. On day 6, 100 μL of a luciferase luminescent reagent, Steady-Glo (Promega), was added to each well and shaken for 30 minutes, and thereafter, the total amount was transferred to a 96-well white plate, and the luciferase activity was measured with a TopCount NXT luminescence detection counter (Packard Japan). The obtained activity values were averaged and tallied for the solvent control group and every concentration of the test chemical.

[1] = tested on: balb/c 3T3 cells cloneA31; experiment: 3T3 cell proliferation test (CellTiter-Glo); assay type: cell-based; settings: Mus musculus, BALB/c3T3, 144 h, read-out: 3T3 IC50 (50% inhibitory concentration for cell growth)
Description: In addition, using balb/c 3T3 cells cloneA31 obtained from ATCC (hereinafter, 3T3 cells), the effects of each test chemical on cell proliferation were evaluated by the following method. The 3T3 cells cultured in DMEM medium containing 10% heat inactivated fetal bovine serum, 2 mM glutamine, penicillin and streptomycin (medium for 3T3) in an incubator at 37° C. and 5% CO2 were dispersed using 0.25% trypsin/1 mM EDTA, and thereafter, the cells were suspended in the medium for 3T3. Residual trypsin was removed by centrifugation and suction of the supernatant, and the cells were suspended in the medium for 3T3. Thereafter, the number of cells was counted using a small amount of the cell solution, and a cell suspension was prepared so as to have a cell number of 10,000 cells/mL. The prepared cell suspensions were added with only solvent such as PBS(−) or DMSO as a solvent control or added with a test chemical prepared by diluting with solvent into several levels. Thereafter, each cell suspension was seeded in a white 96-well plate for cell culture in a volume of 50 μL, and the culture was performed for 3 days. On day 3, 50 μL of the medium for 3T3 supplemented with the test chemical again prepared was added, and the culture was continued for 3 days. On day 6, the supernatant of each well was removed by suction, then, each well was supplemented with the solution in a CellTiter-Glo™ Luminescent Cell Viability Assay kit (Promega) and shaken for 30 minutes, and thereafter, the activity was measured with a TopCount NXT luminescence detection counter. […] The activity values obtained from each test of the Hand1-ES cells and the 3T3 cells were averaged and tallied for the solvent control group and every concentration of the test chemical, and thereafter, a relative value of each concentration was calculated using the average value of the solvent control group as 100%.

[2] = known classification of the test chemicals used; cited from earlier work
[3] = day 6, CellTiter-Glo luminescence

SMILES	Embryotoxicity assessment from comparing Hand1-ES ID50 with 3T3 IC50 (Hand1-ES cells)	Hand1-ES ID50 (50% inhibitory concentration for differentiation) (Hand1-ES cells) [µg/mL]	IC50 [1, 3] [µg/mL]	in vivo embryotoxicity [2]	Embryotoxicity assessment from comparing Hand1-ES ID50 with 3T3 IC50 (Hand1-ES cells; ID50<IC50 = embryotoxic, ID50 larger than IC50 = not shown)	IC50 [1] [µg/mL]
O=c1[nH]c(=O)n([C@H]2C[C@H](O)[C@@H](CO)O2)cc1Br [5-bromo-2′-deoxyuridine]	has embryotoxicity	0.12	0.8 (≈ 2.61 µM)	positive		
O=c1[nH]cc(F)c(=O)[nH]1 [5-fluorouracil]	has embryotoxicity	0.02	0.16 (≈ 1.23 µM)	positive		
C=CC(N)=O [acrylamide]		85.3	54 (≈ 760 µM)	negative	embryotoxicity is not shown	
O=C1O[C@H]([C@@H](O)CO)C(O)=C1O [ascorbic acid]	embryotoxicity is not shown	28.3				2 (≈ 11.4 µM)
C[C@@H]1C[C@H]2[C@@H]3CCC4=CC(=O)C=C[C@]4(C)[C@@]3(F)[C@@H](O)C[C@]2(C)[C@@]1(O)C(=O)CO [dexamethasone]	has embryotoxicity	15.6	36.7 (≈ 93.5 µM)	positive		
NC(=O)NO [hydroxyurea]	has embryotoxicity	2.5	4.7 (≈ 61.8 µM)			
